Series [1] can be described thus: Aqueous solubility of compound at 1 mg. As to conditions: aqueous medium.
The subject of a further series is THP-1. In words: Cytotoxicity against human THP-1 cells assessed as reduction in cell viability incubated for 72 hrs by MTT assay. In kind it is ADME, cell-based. As to conditions: THP-1, 72 h.
The next series concerns L02. Put plainly: Cytotoxicity against human L02 cells assessed as reduction in cell viability incubated for 72 hrs by MTT assay. In kind it is ADME, cell-based. As to conditions: L02, 72 h.
The test system of a further series is HEK293. In words: Cytotoxicity against human HEK293 cells assessed as reduction in cell viability incubated for 72 hrs by MTT assay. In kind it is ADME, cell-based. Particulars: HEK293, 72 h.
The target of series [2] is Tyrosine-protein kinase BTK (Homo sapiens, UniProt Q06187). In words: Inhibition of BTK (unknown origin) by caliper mobility shift assay.
Tyrosine-protein kinase BTK, sequence (Q06187 whole entry): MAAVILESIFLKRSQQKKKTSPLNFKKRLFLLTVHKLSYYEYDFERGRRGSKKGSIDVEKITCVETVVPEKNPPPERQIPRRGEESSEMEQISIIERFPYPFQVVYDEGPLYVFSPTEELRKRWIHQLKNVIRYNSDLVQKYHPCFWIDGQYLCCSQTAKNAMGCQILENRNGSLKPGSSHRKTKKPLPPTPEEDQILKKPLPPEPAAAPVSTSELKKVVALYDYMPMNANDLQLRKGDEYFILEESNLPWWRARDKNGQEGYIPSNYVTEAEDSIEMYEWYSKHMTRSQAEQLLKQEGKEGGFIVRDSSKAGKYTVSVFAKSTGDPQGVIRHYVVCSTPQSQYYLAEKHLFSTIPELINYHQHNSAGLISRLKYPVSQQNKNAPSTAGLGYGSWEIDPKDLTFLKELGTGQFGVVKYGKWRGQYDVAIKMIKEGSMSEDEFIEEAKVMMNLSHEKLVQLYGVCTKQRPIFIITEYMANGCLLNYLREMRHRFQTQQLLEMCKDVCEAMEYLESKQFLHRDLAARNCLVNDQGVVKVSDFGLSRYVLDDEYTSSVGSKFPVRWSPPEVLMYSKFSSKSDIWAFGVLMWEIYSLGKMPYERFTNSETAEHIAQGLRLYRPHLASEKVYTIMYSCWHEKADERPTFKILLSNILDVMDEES
A further series concerns Mus musculus. In words: Antiarthritic activity in DBA/1J mouse model of collagen-induced arthritis at 20 mg/kg, po administered for 30 days and measured on day 30. Type of series: functional, organism-based. As to conditions: time 30.0 day.
A short description of series [3]: Inhibition of recombinant human PI3K using PIP2 as substrate incubate for 15 mins by LANCE assay.

≈ marks a conversion by molar mass, not a printed value. Calls of active or inactive are those of the source. No cut-off for these calls is given here.

For 17 compounds, solubility, IC50 and Activity results are on record in ChEMBL document CHEMBL4715815, “Design, synthesis and biological evaluation of 7H-pyrrolo[2,3-d]pyrimidin-4-amine derivatives as selective Btk inhibitors with improved pharmacokinetic properties for the treatment of rheumatoid arthritis” (Eur J Med Chem, 2018).

For the compound `C=CC(=O)N1CCCC(Cn2cc(-c3ccc4c(c3)OCO4)c3c(N)ncnc32)C1` (single isomer, unassigned; form 2), the concentration in solution in series [1] (solubility) came to 100 µg/mL (≈ 247 µM).
As for `C=CS(=O)(=O)N1CCC(Cn2cc(-c3ccc4c(c3)OCO4)c3c(N)ncnc32)CC1`, the figures for the 50% inhibitory concentration (IC50) in the series on THP-1, in the series on L02 and with HEK293 were 3.7 µM, 3.2 µM and 2.5 µM, respectively. In addition, the solubility in series [1] was found to be 100 µg/mL (≈ 226 µM).
Regarding `C=CC(=O)N1CCC(CCn2cc(-c3ccc(Oc4ccccc4)cc3)c3c(N)ncnc32)CC1`, the IC50 with THP-1 was 18.9 µM; with L02, 15.2 µM; in the series with HEK293, 10.2 µM. This compound also displayed a solubility in series [1] of less than 10 µg/mL.
As for `C=CS(=O)(=O)N1CCC(Cn2cc(-c3ccc(Oc4ccccc4)cc3)c3c(N)ncnc32)CC1`, the IC50 in the series with THP-1 came to 3.3 µM; with L02, 3.2 µM; in the series on HEK293 it was 2.7 µM. This compound also showed a solubility in series [1] of less than 10 µg/mL.
Turning to `C=CC(=O)N1CCC(Cn2cc(-c3ccc(Oc4ccccc4)cc3)c3c(N)ncnc32)CC1`, the IC50 was 16.7 µM with THP-1, 0.00609 µM in series [2], 16 µM with L02 and 13.3 µM in the series with HEK293. In addition, the solubility in series [1] was less than 10 µg/mL.
Regarding `C=CS(=O)(=O)N1CCC(Cn2nc(-c3ccc4c(c3)OCO4)c3c(N)ncnc32)CC1`, the values for the half-maximal inhibitory concentration (IC50) with THP-1, in the series on L02 and with HEK293 were 14.4 µM, 10.1 µM and 2.8 µM, respectively. Further, in series [1], the solubility was 100 µg/mL (≈ 226 µM).
With `C=CC(=O)N1CCC(Cn2cc(-c3ccc(OCc4ccccc4)cc3)c3c(N)ncnc32)CC1`, the IC50 in series [2] amounted to 0.077 µM. The same compound displayed a solubility in series [1] of less than 10 µg/mL.
Regarding `CN(C)C/C=C/C(=O)N1CCC(Cn2cc(-c3ccc(Oc4ccccc4)cc3)c3c(N)ncnc32)CC1`, the half-inhibitory concentration (IC50) came to 3.2 µM in the series on THP-1, 6.6 µM in the series with L02 and 4.8 µM with HEK293. The compound further showed a solubility in series [1] of less than 10 µg/mL.
As for `C=CC(=O)N1CCCC(Cn2cc(-c3ccc(Oc4ccccc4)cc3)c3c(N)ncnc32)C1` (single isomer, unassigned; form 1), the half-inhibitory concentration (IC50) is 8.8 µM in the series on THP-1, 11.7 µM in the series on L02 and 2.9 µM in the series with HEK293. This compound also gave a solubility in series [1] of less than 10 µg/mL.
Compound `C=CC(=O)N1CCCC(Cn2cc(-c3ccc4c(c3)OCO4)c3c(N)ncnc32)C1` (single isomer, unassigned; form 1) showed a solubility in series [1] of 100 µg/mL (≈ 247 µM).
For the compound `C=CS(=O)(=O)N1CCC(Cn2nc(-c3ccc(Oc4ccccc4)cc3)c3c(N)ncnc32)CC1`, the half-maximal inhibitory concentration (IC50) in the series with THP-1 is 18.3 µM; with L02 it was 19.1 µM; with HEK293, 1.6 µM. This compound showed a solubility in series [1] of less than 10 µg/mL.
On to `C=CC(=O)N1CCC[C@@H](n2nc(-c3ccc(Oc4ccccc4)cc3)c3c(N)ncnc32)C1` [IBRUTINIB], for which the IC50 is 20.1 µM in the series on THP-1, 17.4 µM in the series with L02, greater than 10 µM in series [3] and 19.3 µM in the series on HEK293. In addition, the outcome with Mus musculus was Active. In series [1], this compound registered a solubility of less than 10 µg/mL.
Consider `C=CC(=O)N1CCC(CCn2cc(-c3ccc4c(c3)OCO4)c3c(N)ncnc32)CC1`, for which the solubility in series [1] is less than 100 µg/mL.
Consider `CN(C)C/C=C/C(=O)N1CCC(Cn2cc(-c3ccc4c(c3)OCO4)c3c(N)ncnc32)CC1`, for which, in series [1], the solubility was less than 100 µg/mL.
For `C=CC(=O)N1CCC(Cn2nc(-c3ccc(Oc4ccccc4)cc3)c3c(N)ncnc32)CC1`, the 50% inhibitory concentration (IC50) in the series with THP-1 was found to be 15.7 µM; in the series on L02, 10.9 µM; in the series on HEK293 it was 11.2 µM. Besides, in series [1], the solubility is less than 10 µg/mL.
Consider `C=CC(=O)N1CCCC(Cn2cc(-c3ccc(Oc4ccccc4)cc3)c3c(N)ncnc32)C1` (single isomer, unassigned; form 2), for which the half-maximal inhibitory concentration (IC50) was 10.7 µM in the series on THP-1, 14.2 µM in the series with L02 and 1.3 µM with HEK293. The same compound returned a solubility in series [1] of less than 10 µg/mL.
`C=CC(=O)N1CCC(Cn2nc(-c3ccc4c(c3)OCO4)c3c(N)ncnc32)CC1` gave a solubility in series [1] of 100 µg/mL (≈ 246 µM).
